Laboratory results taken from patent US8865910B2 (priority 2010, dated 2014).
Where two headings read alike, the source gives them in different places.

What was measured:
M. tuberculosis H37Rv = conditions: BACTEC 12B medium; cited from earlier work
M. bovis BCG = assay: microbe, parasite or virus in culture; assay type: cell-based, Mycobacterium bovis BCG; conditions: for inhibition at 100 µg/mL: Mycobacterium tuberculosis variant bovis BCG, BCG, 192 h
dormant tubercle bacilli = conditions: cited from earlier work
M. tuberculosis = assay: Antitubercular activity against active and dormant bacilli of M. tuberculosis; assay type: cell-based, Mycobacterium tuberculosis H37Ra
[1] = read-out: Antimycobacterial activity % inhibition at 100 μg/ml Aerobic/Active stage
[2] = read-out: Antimycobacterial activity % inhibition at 100 μg/ml Anearobic/Dormant stage

SMILES | inhibition at 100 µg/mL (M. bovis BCG; [1]) [%] | inhibition at 100 µg/mL (M. bovis BCG; [2]) [%] | also measured
CCCSc1nnc(-c2ncc([N+](=O)[O-])n2C)s1 [2-(1-Methyl-5-nitro-1H-imidazol-2-yl)-5-(n-propyl)thio-1,3,4-thiadiazole] | – | – | inhibition effects in the primary screening (M. tuberculosis H37Rv): 90%
O=[N+]([O-])c1ccc(-c2nnc(SCc3ccccc3[N+](=O)[O-])s2)o1 [2-(5-nitro-2-furyl)-5-(2-nitrobenzyl)thio-1,3,4-thiadiazole] | – | – | inhibition effects in the primary screening (M. tuberculosis H37Rv): 90%
C#CCSc1nnc(-c2ccc([N+](=O)[O-])o2)s1 [2-(5-nitro-2-furyl)-5-(2-propynyl)thio-1,3,4-thiadiazole] | – | – | inhibition effects in the primary screening (M. tuberculosis H37Rv): 90%
O=[N+]([O-])c1cccc(CSc2nnc(-c3ccc([N+](=O)[O-])o3)s2)c1 [2-(5-nitro-2-furyl)-5-(3-nitrobenzyl)thio-1,3,4-thiadiazole] | – | – | inhibition effects in the primary screening (M. tuberculosis H37Rv): 90%
O=[N+]([O-])c1ccc(CSc2nnc(-c3ccc([N+](=O)[O-])o3)s2)cc1 [2-(5-nitro-2furyl)-5-(4-nitrobenzyl)thio-1,3,4-thiadiazole] | – | – | inhibition effects in the primary screening (M. tuberculosis H37Rv): 90%
C=CCSc1nc(C)n[nH]1 [4b, 3-(allylthio)-5-methyl-1H-1,2,4-triazole] | 98 | 97 | –
C=CCSc1nc(C(C)(C)C)n[nH]1 [4c, 3-(allylthio)-5-tert-butyl-1H-1,2,4-triazole] | 57 | 39 | –
C=CCSc1nc(-c2ccc([N+](=O)[O-])cc2)n[nH]1 [4d, 3-(allylthio)-5-(4-nitrophenyl)-1H-1,2,4-triazole] | 25 | 14 | –
C=CCSc1n[nH]c(-c2ccc(OC)cc2)n1 [4e, 3-(allylthio)-5-(4-methoxyphenyl)-1H-1,2,4-triazole] | 94 | 93 | –
C=CCSc1ncn(CC=C)n1 [5a, 1-allyl-3-(allylthio)-1H-1,2,4-triazole] | 58 | 42 | –
C=CCSc1nc(C)n(CC=C)n1 [5b, 1-allyl-3-(allylthio)-5-methyl-1H-1,2,4-triazole] | 25 | 15 | –
C=CCSc1nc(C(C)(C)C)n(CC=C)n1 [5c, 1-allyl-3-(allylthio)-5-tert-butyl-1H-1,2,4-triazole] | 45 | 36 | –
C=CCSc1nc(-c2ccc([N+](=O)[O-])cc2)n(CC=C)n1 [5d, 1-allyl-3-(allylthio)-5-(4-nitrophenyl)-1H-1,2,4-triazole] | 15 | 18 | –
C=CCSc1nc(-c2ccc(OC)cc2)n(CC=C)n1 [5e, 1-allyl-3-(allylthio)-5-(4-methoxyphenyl)-1H-1,2,4-triazole] | 89 | 84 | –
C=CCSc1nc(-c2ccc(Cl)cc2)n(CC=C)n1 [5f, 1-allyl-3-(allylthio)-5-(4-chlorophenyl)-1H-1,2,4-triazole] | 94 | 91 | –
C=CCSc1ncnn1CC=C [6a, 1-allyl-5-(allylthio)-1H-1,2,4-triazole] | 65 | 60 | –
C=CCSc1nc(C)nn1CC=C [6b, 1-allyl-5-(allylthio)-3-methyl-1H-1,2,4-triazole] | 22 | 10 | –
C=CCSc1nc(C(C)(C)C)nn1CC=C [6c, 1-allyl-5-(allylthio)-3-tert-butyl-1H-1,2,4-triazole] | 30 | 33 | –
C=CCSc1nc(-c2ccc([N+](=O)[O-])cc2)nn1CC=C [6d, 1-allyl-5-(allylthio)-3-(4-nitrophenyl)-1H-1,2,4-triazole] | 40 | 12 | –
C=CCSc1nc(-c2ccc(OC)cc2)nn1CC=C [6e, 1-allyl-5-(allylthio)-3-(4-methoxyphenyl)-1H-1,2,4-triazole] | 88 | 83 | –
C=CCSc1nc(-c2ccc(Cl)cc2)nn1CC=C [6f, 1-allyl-5-(allylthio)-3-(4-chlorophenyl)-1H-1,2,4-triazole] | 26 | 14 | –

SMILES | inhibition at 100 µg/mL (M. bovis BCG; [1]) [%] | inhibition at 100 µg/mL (M. bovis BCG; [2]) [%] | also measured
C#CCS(=O)(=O)c1nc[nH]n1 [7a, 5-(prop-2-ynylsulfonyl)-1H-1,2,4-triazole] | 42 | 23 | –
C#CCS(=O)(=O)c1n[nH]c(C)n1 [7b, 3-methyl-5-(prop-2-ynylsulfonyl)-1H-1,2,4-triazole] | 92 | 82 | –
C#CCS(=O)(=O)c1nc(C(C)(C)C)n[nH]1 [7c, 3-tert-butyl-5-(prop-2-ynylsulfonyl)-1H-1,2,4-triazole] | 76 | 74 | –
C#CCS(=O)(=O)c1n[nH]c(-c2ccc([N+](=O)[O-])cc2)n1 [7d, 3-(4-nitrophenyl)-5-(prop-2-ynylsulfonyl)-1H-1,2,4-triazole] | 96 | 91 | –
C#CCS(=O)(=O)c1n[nH]c(-c2ccc(OC)cc2)n1 [7e, 3-(4-methoxyphenyl)-5-(prop-2-ynylsulfonyl)-1H-1,2,4-triazole] | 88 | 82 | –
C#CCS(=O)(=O)c1n[nH]c(-c2ccc(Cl)cc2)n1 [7f, 3-(4-chlorophenyl)-5-(prop-2-ynylsulfonyl)-1H-1,2,4-triazole] | 88 | 86 | –
C#CCSc1nc(C(C)(C)C)nn1CC=C [8a, 1-allyl-3-tert-butyl-5-(prop-2-ynylthio)-1H-1,2,4-triazole] | 76 | 74 | –
C#CCSc1nc(C(C)(C)C)n(CC=C)n1 [8b, 1-allyl-5-tert-butyl-3-(prop-2-ynylthio)-1H-1,2,4-triazole] | 96 | 91 | –
C#CCn1nc(C(C)(C)C)nc1SCC=C [8c, 5-(allylthio)-3-tert-butyl-1-(prop-2-ynyl)-1H-1,2,4-triazole] | 98 | 79 | –
C#CCn1nc(SCC=C)nc1C(C)(C)C [8d, 3-(allylthio)-5-tert-butyl-1-(prop-2-ynyl)-1H-1,2,4-triazole] | 98 | 82 | –
C#CCSc1ncnn1CC=C [9a, 1-allyl-5-(prop-2-ynylthio)-1H-1,2,4-triazole] | 40 | 22 | –
C#CCSc1nc(C)nn1CC=C [10a, 1-allyl-3-methyl-5-(prop-2-ynylthio)-1H-1,2,4-triazole] | 98 | 93 | –
C#CCSc1nc(C)n(CC=C)n1 [10b, 1-allyl-5-methyl-3-(prop-2ynylthio)-1H-1,2,4-triazole] | 98 | 92 | –
C#CCn1nc(Br)nc1Br [11a, 3,5-dibromo-1-(prop-2-ynyl)-1H-1,2,4-triazole] | 97 | 20 | –
C=CCn1nc(Br)nc1Br [11b, 1-allyl-3,5-dibromo-1H-1,2,4-triazole] | 12 | 21 | –
C=C(C)Cn1nc(Br)nc1Br [11c, 3,5-dibromo-1-(2-methylallyl)-1H-1,2,4-triazole] | 9 | 19 | –
Brc1nc(Br)n(Cc2cn(Cc3ccccc3)nn2)n1 [11d, 1-benzyl-4-((3,5-dibromo-1H-1,2,4-triazol-1-yl)methyl)-1H-1,2,3-triazole] | 2 | 13 | –
OC(Cn1cncn1)(Cn1cncn1)c1ccc(F)cc1F [Fluconazole] | – | – | Effectiveness against dormant tubercle bacilli (dormant tubercle bacilli): not effective
C=CCSc1n[nH]c(-c2ccc(Cl)cc2)n1 [compound 4f, 3-(allylthio)-5-(4-chlorophenyl)-1H-1,2,4-triazole] | 98 | 91 | Effectiveness against active and dormant stage of the bacilli (M. bovis BCG; M. bovis BCG, active and dormant stage): effective against both active as well as dormant stage; Effectiveness against active and dormant stage of the bacilli (M. tuberculosis): effective against both active as well as dormant stage
CC(C)(C)C(O)(CCc1ccc(Cl)cc1)Cn1cncn1 (centres unmarked) [tebuconazole] | – | – | Effectiveness against dormant tubercle bacilli (dormant tubercle bacilli): not effective
